Assay results published in EP4707393A1, “DOUBLE-STRANDED SIRNA, CONJUGATE THEREOF AND USE THEREOF” (CMS Research & Development Pte. Ltd., priority 2023, dated 2024).

Test system: human LPA gene (Genbank number: NM_005577.4)
Assay: Inhibitory activity against LPA mRNA, psiCHECK-2 dual-luciferase reporter vector in Huh7 cells
Assay type: cell-based
Conditions: Huh7 cells transfected with LPA_psiCHECK-2 plasmid, RNAiMAX transfection
Protocol: A stock solution was prepared by dissolving in PBS and stored at -20 °C.
The human LPA gene (Genbank number: NM_005577.4) was cloned into the psiCHECK™-2 vector.
Huh7 cells were cultured in DMEM (Gibco-11995-065, 500 mL) medium, supplemented with FBS (ExCellBio-FSP500, 57 mL), Penicillin-Streptomycin solution (Hyclone-SV30010, 5.7 mL), GlutaMAX™ (Gibco-35050-061, 5.7 mL) and Non-Essential Amino Acids Solution (Gibco-11140050, 5.7 mL).
On Day 1, a method for transfection of the LPA_PSICHECK (TM)-2 plasmid is briefly described as follows: Huh7 cells were washed with DPBS, followed by digestion with 0.05% trypsin, gently pipetted into single cells in DMEM containing 10% FBS, and counted. Plasmid DNA was transferred into Huh7 cells using Fugene HD. The transfected cells were seeded into 96-well plates at a density of 10,000 cells per well, with 100 µL culture medium per well. The cells were incubated overnight in a 5% CO2 incubator at 37 °C.
On Day 2, the test compounds were diluted serially with PBS to 3 concentrations.
RNAiMAX transfection reagent was prepared by blending homogeneously with Opti-MEM at a ratio of RNAiMAX: Opti-MEM=3:47 in a 15 mL centrifuge tube as needed. The compounds were mixed with the RNAiMAX/Opti-MEM (1:1) and incubated for 15 min. The compound-containing RNAiMAX/Opti-MEM mixture was diluted 10-fold with fresh medium and blended homogeneously.
The medium in each well was aspirated, and then 100 µL of the fresh compound-containing medium was added, and then incubated in a 5% CO2, 37 °C incubator.
Experimental procedures refer to DUAL-GLO® Dual Luciferase Assay System instructions, briefly described as follows: Taking out the cells from the incubator, aspirating and discarding the supernatant, adding 75µL fresh culture medium and 75µL detection reagent, shaking for 10 minutes in the dark, and after the cells had been fully lysed, transfering100µL sample to an opaque whiteboard for detecting the Firefly luminescence signal; adding 50 µL Dual-Glo®Stop & Glo® test reagent to each well and detecting the Renilla luciferase signal after shaking for 10 minutes in the dark. The ratio of the reporter signal to the internal control reporter signal was calculated for each well.
[formula] % Inhibition = (1-Sampleratio/RNAiMAXcontrolratio) × 100% [formula]

| Substance | EC50 |
| --- | --- |
| Z8: siRNA conjugate: sense SEQ ID NO:32, ligand D08 at 3' end of sense strand, antisense SEQ ID NO:56 (sense CCCTTATTGTTATACG; antisense ATCCCTCGTANAACAATAAGGGGCTGTT; 2'-OMe/2'-F modified, ligand at sense 3' end, full pattern not given here) | 0.81 nM |
| Z9: siRNA conjugate: sense SEQ ID NO:33, ligand D08 at 3' end of sense strand, antisense SEQ ID NO:56 (sense CCCTTATTGTTATACG; antisense ATCCCTCGTANAACAATAAGGGGCTGTT; ligand D08 at sense 3' end; listed as RNA; modified_base 1..2: mod_base = OTHER; note = 2'-O-methylcytidine; modified_base 3: mod_base = OTHER; modified_base 4..5: mod_base = OTHER; note = 2'-O-methyluridine; modified_base 6: mod_base = OTHER; note = 2'-O-me; modified_base 1: mod_base = OTHER; note = 2'-O-methyladenosine; modified_base 2: mod_base = OTHER; note = 2'-O-met) | 1.77 nM |
| Z10: siRNA conjugate: sense SEQ ID NO:34, ligand D08 at 3' end of sense strand, antisense SEQ ID NO:56 (sense CCCTTATTGTTATACG; antisense ATCCCTCGTANAACAATAAGGGGCTGTT; 2'-OMe/2'-F modified, ligand at sense 3' end, full pattern not given here) | 2.11 nM |
| Z11: siRNA conjugate: sense SEQ ID NO:27, ligand D08 at 3' end of sense strand, antisense SEQ ID NO:59 (sense CCCTTATTGTTATACG; antisense ATCCCTCGTANAACAATAAGGGGCTGCC; 2'-OMe/2'-F modified, ligand at sense 3' end, full pattern not given here) | 0.56 nM |
| Z12: siRNA conjugate: sense SEQ ID NO:27, ligand D08 at 3' end of sense strand, antisense SEQ ID NO:60 (sense CCCTTATTGTTATACG; antisense ATCCCTCGTANAACAATAAGGGGCTG; 2'-OMe/2'-F modified, ligand at sense 3' end, full pattern not given here) | 0.32 nM |
| Z13: siRNA conjugate: sense SEQ ID NO:27, ligand D08 at 3' end of sense strand, antisense SEQ ID NO:61 (sense CCCTTATTGTTATACG; antisense ATCCCTCGTANAACAATAAGGGGCTGTT; 2'-OMe/2'-F modified, ligand at sense 3' end, full pattern not given here) | 0.42 nM |
| Z14: siRNA conjugate: sense SEQ ID NO:27, ligand D08 at 3' end of sense strand, antisense SEQ ID NO:62 (sense CCCTTATTGTTATACG; antisense ATCCCTCGTANAACAATAAGGGGCTGTT; 2'-OMe/2'-F modified, ligand at sense 3' end, full pattern not given here) | 1.59 nM |
| Z15: siRNA conjugate: sense SEQ ID NO:27, ligand D08 at 3' end of sense strand, antisense SEQ ID NO:63 (sense CCCTTATTGTTATACG; antisense ATCCCTCGTANAACAATAAGGGGCTG; 2'-OMe/2'-F modified, ligand at sense 3' end, full pattern not given here) | 0.23 nM |
| Z17: siRNA conjugate: sense SEQ ID NO:36, ligand D01 at 3' end of sense strand, antisense SEQ ID NO:63 (sense NNCCCCTTATTGTTATACN; antisense ATCCCTCGTANAACAATAAGGGGCTG; 2'-OMe/2'-F modified, ligand at sense 3' end, full pattern not given here) | 1.5 nM |
| Z18: siRNA conjugate: sense SEQ ID NO:36, ligand D01 at 3' end of sense strand, antisense SEQ ID NO:61 (sense NNCCCCTTATTGTTATACN; antisense ATCCCTCGTANAACAATAAGGGGCTGTT; 2'-OMe/2'-F modified, ligand at sense 3' end, full pattern not given here) | 0.25 nM |
| Z20: siRNA conjugate: sense SEQ ID NO:27, ligand D01 at 3' end of sense strand, antisense SEQ ID NO:56 (sense CCCTTATTGTTATACG; antisense ATCCCTCGTANAACAATAAGGGGCTGTT; 2'-OMe/2'-F modified, ligand at sense 3' end, full pattern not given here) | 0.51 nM |
| Z21: siRNA conjugate: sense SEQ ID NO:36, ligand D01 at 3' end of sense strand, antisense SEQ ID NO:64 (sense NNCCCCTTATTGTTATACN; antisense TCTCGTANAACAATAAGGGGCTGTT; 2'-OMe/2'-F modified, ligand at sense 3' end, full pattern not given here) | 0.44 nM |
| Z22: siRNA conjugate: sense SEQ ID NO:38, ligand D18 at 3' end of sense strand, antisense SEQ ID NO:64 (sense NNCCCCTTATTGTTATACNA; antisense TCTCGTANAACAATAAGGGGCTGTT; 2'-OMe/2'-F modified, ligand at sense 3' end, full pattern not given here) | 0.28 nM |
| Z23: siRNA conjugate: sense SEQ ID NO:39, ligand D18 at 3' end of sense strand, antisense SEQ ID NO:64 (sense NNCCCCTTATTGTTATACGN; antisense TCTCGTANAACAATAAGGGGCTGTT; 2'-OMe/2'-F modified, ligand at sense 3' end, full pattern not given here) | 0.12 nM |
| Z25: siRNA conjugate: sense SEQ ID NO:41, ligand D18 at 3' end of sense strand, antisense SEQ ID NO:64 (sense NNCCCCTTATTGTTATACGNGA; antisense TCTCGTANAACAATAAGGGGCTGTT; ligand D18 at sense 3' end; listed as RNA; modified_base 1: mod_base = OTHER; note = n is invAb; modified_base 2: mod_base = OTHER; note = n is R; modified_base 3..6: mod_base = OTHER; note = 2'-O-methylcytidine; modified_base 7: mod_base = OTHER; note = 2'-O-methyluridine; modified_ba; modified_base 3: mod_base = OTHER; modified_base 4: mod_base = OTHER; note = 2'-fluorocytidine; modified_base 5: mod_base = OTHER; note = 2'-O-methylg) | 0.68 nM |
| Z26: siRNA conjugate: sense SEQ ID NO:42, ligand D18 at 3' end of sense strand, antisense SEQ ID NO:65 (sense CCCTTATTGTTANACGA; antisense TCTCGTATNACAATAAGGGGCTT; ligand D18 at sense 3' end; listed as RNA; modified_base 1..2: mod_base = OTHER; note = 2'-O-methylcytidine; modified_base 3: mod_base = OTHER; modified_base 4: mod_base = OTHER; note = 2'-O-methyluridine; modified_base 5: mod_base = OTHER; note = 2'-fluorou; modified_base 1: mod_base = OTHER; note = 2'-fluorocytidine; note = 2'-O-methylg) | 2.83 nM |
| Z36: siRNA conjugate: sense SEQ ID NO:50, ligand D18 at 3' end of sense strand, antisense SEQ ID NO:75 (sense CCTGCCAAGCTTGGTCATCTA; antisense TAGATGNCCAAGCTTGGCNGGTT; ligand D18 at sense 3' end; listed as RNA; modified_base 1..2: mod_base = OTHER; note = 2'-O-methylcytidine; modified_base 3: mod_base = OTHER; note = 2'-O-methyluridine; modified_base 4: mod_base = OTHER; note = 2'-O-methylguanosine; modified_base 5..6: mod_base = OTHER; note = 2'-O-m; modified_base 1: mod_base = OTHER; note = E-type vinylphosphonate-modified 2'-O-methyluridine; modified_base 2: mod_base = OTHER; note = 2'-fluoroadenosine; modified_base 4: m) | 0.23 nM |
